Data published in BindingDB's records for doi:10.1016/j.bmcl.2016.10.061 (Ocean University of China, 2016).

Target: Proto-oncogene tyrosine-protein kinase receptor Ret (Homo sapiens) (UniProt P07949)
Experiment: Inhibition of CCDC6/RET (unknown origin) expressed in mouse BaF3 cells assessed as reduction in cell proliferation after 72 hrs by MTT assay

Chain of Proto-oncogene tyrosine-protein kinase receptor Ret (Homo sapiens) (P07949 whole entry, looked up): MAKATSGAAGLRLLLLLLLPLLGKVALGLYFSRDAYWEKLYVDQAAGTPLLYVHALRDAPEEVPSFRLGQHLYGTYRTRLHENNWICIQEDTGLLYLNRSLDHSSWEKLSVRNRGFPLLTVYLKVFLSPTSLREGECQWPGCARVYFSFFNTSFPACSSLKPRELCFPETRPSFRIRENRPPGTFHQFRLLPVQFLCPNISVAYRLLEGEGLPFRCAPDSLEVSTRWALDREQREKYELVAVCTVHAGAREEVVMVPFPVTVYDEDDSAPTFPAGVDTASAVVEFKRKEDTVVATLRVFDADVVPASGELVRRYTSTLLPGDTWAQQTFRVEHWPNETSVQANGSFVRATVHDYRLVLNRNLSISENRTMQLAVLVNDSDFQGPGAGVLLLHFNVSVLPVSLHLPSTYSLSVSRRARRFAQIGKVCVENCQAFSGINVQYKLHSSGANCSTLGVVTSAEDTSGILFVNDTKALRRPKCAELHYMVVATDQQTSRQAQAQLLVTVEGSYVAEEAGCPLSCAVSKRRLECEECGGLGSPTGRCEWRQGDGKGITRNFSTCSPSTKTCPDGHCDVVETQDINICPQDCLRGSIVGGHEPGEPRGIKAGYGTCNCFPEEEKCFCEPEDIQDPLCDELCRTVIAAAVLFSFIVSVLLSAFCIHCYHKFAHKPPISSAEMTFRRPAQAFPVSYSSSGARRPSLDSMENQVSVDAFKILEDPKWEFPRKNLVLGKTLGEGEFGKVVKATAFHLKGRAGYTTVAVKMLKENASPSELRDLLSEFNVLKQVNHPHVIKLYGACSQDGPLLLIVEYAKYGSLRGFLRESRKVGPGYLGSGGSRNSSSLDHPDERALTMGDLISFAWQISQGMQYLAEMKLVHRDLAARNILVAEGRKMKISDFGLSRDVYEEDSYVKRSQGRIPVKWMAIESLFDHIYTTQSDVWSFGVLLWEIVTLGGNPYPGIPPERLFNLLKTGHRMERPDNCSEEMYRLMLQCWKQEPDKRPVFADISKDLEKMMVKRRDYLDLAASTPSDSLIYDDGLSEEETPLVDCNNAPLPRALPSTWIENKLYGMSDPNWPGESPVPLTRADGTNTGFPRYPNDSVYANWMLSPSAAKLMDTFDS

## CN1CCN(Cc2ccc(NC(=O)c3ccc(Cl)c(-c4noc(-c5cncc(-c6cnn(C)c6)c5)n4)c3)cc2C(F)(F)F)CC1
  IC50: 407 nM
